Measurements reported in patent EP2505659A1, “Methods for the identification of dioxygenase interacting molecules and for the purification of dioxygenase proteins” (CELLZOME AG, priority 2011, dated 2012).
Structures can show the parent of a compound that is named as a salt. Where two headings read alike, the source gives them in different places.

Columns and labels:
Assay in all cases: Bead competition binding assay, immobilized compound A, K-562, HL-60 and Jurkat nuclear lysates
EGLN1 = molecular target: T1, EGLN1 (Homo sapiens, UniProt Q9GZT9); settings: 100 µM free compound A, read-out: Fold change versus DMSO control
T1 construct: endogenous in cells
T1 sequence (Q9GZT9 whole entry): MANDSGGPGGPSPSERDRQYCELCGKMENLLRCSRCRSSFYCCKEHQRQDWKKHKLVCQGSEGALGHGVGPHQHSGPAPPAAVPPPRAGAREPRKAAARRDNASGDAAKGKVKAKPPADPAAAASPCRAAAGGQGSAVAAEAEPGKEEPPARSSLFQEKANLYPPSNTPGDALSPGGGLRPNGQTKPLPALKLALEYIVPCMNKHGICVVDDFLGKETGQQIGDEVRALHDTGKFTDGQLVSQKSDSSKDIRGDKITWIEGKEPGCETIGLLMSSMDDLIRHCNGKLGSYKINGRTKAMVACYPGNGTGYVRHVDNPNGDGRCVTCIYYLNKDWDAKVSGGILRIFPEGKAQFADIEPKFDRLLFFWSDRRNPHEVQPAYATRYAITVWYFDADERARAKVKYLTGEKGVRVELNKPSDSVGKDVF
From the text: (§1) K562 cells were also purchased from DSMZ (Braunschweig, Germany).
(§2) Table 5: Peptide elution off the LC system

LEPREL2 = molecular target: T2, LEPREL2 (Homo sapiens, UniProt Q8IVL6); settings: 100 µM free compound A, read-out: Fold change versus DMSO control
T2 construct: capturing and identification of dioxygenases from nuclear protein extracts; endogenous in cells
T2 sequence (Q8IVL6 21-736): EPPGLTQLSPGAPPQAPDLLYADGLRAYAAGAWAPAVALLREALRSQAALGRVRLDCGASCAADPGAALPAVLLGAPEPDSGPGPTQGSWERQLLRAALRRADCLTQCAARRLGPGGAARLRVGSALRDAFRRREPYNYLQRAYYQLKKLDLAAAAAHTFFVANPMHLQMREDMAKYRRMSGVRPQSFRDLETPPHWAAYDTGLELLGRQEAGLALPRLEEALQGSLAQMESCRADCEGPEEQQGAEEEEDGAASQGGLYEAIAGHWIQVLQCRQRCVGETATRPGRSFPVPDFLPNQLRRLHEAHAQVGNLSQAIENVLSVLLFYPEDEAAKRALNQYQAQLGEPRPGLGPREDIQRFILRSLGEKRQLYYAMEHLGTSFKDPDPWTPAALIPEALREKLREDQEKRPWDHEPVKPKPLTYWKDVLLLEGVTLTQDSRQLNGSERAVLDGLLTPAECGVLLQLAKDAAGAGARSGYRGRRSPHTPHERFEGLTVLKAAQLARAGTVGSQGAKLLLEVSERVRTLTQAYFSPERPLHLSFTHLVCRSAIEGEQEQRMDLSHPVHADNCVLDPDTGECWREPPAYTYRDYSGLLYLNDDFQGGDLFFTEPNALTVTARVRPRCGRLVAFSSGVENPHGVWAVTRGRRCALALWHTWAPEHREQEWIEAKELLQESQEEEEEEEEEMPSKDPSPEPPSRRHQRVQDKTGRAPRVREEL
From the text: as §1, §2

PLOD3 = molecular target: T3, PLOD3 (Homo sapiens, UniProt O60568); settings: 100 µM free compound A, read-out: Fold change versus DMSO control
T3 construct: capturing and identification of dioxygenases from nuclear protein extracts; endogenous in cells
T3 sequence (O60568 25-738): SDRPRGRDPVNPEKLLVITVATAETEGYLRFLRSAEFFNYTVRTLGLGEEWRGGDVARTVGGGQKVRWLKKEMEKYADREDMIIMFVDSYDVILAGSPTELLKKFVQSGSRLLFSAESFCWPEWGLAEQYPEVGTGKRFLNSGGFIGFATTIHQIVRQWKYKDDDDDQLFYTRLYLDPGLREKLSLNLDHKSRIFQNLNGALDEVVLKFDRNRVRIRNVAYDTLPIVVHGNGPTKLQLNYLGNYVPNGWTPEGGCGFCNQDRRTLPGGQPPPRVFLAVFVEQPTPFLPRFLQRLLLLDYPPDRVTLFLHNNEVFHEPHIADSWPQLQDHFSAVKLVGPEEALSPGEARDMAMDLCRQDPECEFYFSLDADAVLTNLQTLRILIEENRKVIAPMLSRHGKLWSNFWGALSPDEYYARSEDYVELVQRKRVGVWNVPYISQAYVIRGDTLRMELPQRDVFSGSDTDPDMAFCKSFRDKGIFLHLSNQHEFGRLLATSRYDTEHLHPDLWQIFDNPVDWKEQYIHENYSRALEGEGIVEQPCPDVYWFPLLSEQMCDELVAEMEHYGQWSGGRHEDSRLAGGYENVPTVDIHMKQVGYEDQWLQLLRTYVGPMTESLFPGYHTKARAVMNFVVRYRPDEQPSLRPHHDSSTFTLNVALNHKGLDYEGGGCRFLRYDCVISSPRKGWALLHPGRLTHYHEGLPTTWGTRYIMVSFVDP
From the text: as §1, §2

C17ORF101 = molecular target: T4, C17ORF101 (Homo sapiens, UniProt Q6PK18); settings: read-out: Fold change versus DMSO control, C17ORF101; 100 µM free compound A; HL-60 nuclear lysate
T4 construct: capturing and identification of dioxygenases from nuclear protein extracts; endogenous in cells
T4 sequence (Q6PK18 1-331 isoform Q6PK18-2): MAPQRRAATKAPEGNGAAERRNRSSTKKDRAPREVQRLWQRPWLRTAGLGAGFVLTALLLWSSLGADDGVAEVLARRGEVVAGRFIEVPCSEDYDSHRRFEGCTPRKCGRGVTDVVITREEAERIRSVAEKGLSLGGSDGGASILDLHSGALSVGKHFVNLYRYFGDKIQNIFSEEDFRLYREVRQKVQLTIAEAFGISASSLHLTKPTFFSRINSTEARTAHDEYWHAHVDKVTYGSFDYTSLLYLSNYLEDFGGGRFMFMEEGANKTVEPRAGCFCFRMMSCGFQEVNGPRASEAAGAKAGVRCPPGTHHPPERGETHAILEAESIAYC
From the text: (§3) The proteins bound to the immobilized compound were eluted with detergent-containing buffer and separated on a SDS-polyacryamide gel. […] Table 4: Compound treatment and TMT-labeling of cell samples
(§4) Jurkat cells (ATCC number TIB-152) were either obtained from an external supplier (CIL SA, Mons, Belgium) or grown in one litre Spinner flasks (Integra Biosciences, #182101) in suspension in RPMI 1640 medium (Invitrogen, #21875-034) supplemented with 10% Fetal Bovine Serum (Invitrogen, #10270-106) at a density between 0.2 x 10^6 and 1.0 x 10^6 cells/ml. Cells were harvested by centrifugation, washed once with 1 x PBS buffer (Invitrogen, #14190-094) and cell pellets were frozen in liquid nitrogen and subsequently stored at -80°C.
(§5) Source of HL-60 cells: HL-60 cell line (DSMZ, Braunschweig, Germany; DSMZ number ACC3). K562 cells were also purchased from DSMZ (Braunschweig, Germany).
(§6) Extracts of nuclei were prepared according to the Dignam protocol (Dignam et al., 1983. Nucleic Acids Res. 11 (5):1475-89).
(§7) The TMT reagents are a set of multiplexed, amine-specific, stable isotope reagents that can label peptides on amino groups in up to six different biological samples enabling simultaneous identification and quantitation of peptides. The TMT reagents were used according to instructions provided by the manufacturer. The samples were resuspended in 10 µl 50 mM TEAB solution, pH 8.5 and 10 µl acetonitril were added. The TMT reagent was dissolved in acetonitrile to a final concentration of 24 mM and 10 µl of reagent solution were added to the sample. The labeling reaction was performed at room temperature for one hour on a horizontal shaker and stopped by adding 5 µl of 100 mM TEAB and 100 mM glycine in water. The labeled samples were then combined, dried in a vacuum centrifuge and resuspended in 60% 200mM TEAB / 40% acetonitril.
as §2
(§8) Search criteria varied depending on which mass spectrometer was used for the analysis.

P4HA1 = molecular target: T5, P4HA1 (Homo sapiens, UniProt P13674); settings: read-out: Fold change versus DMSO control, P4HA1, 100 µM free compound A
T5 construct: endogenous in cells
T5 sequence (P13674 18-534): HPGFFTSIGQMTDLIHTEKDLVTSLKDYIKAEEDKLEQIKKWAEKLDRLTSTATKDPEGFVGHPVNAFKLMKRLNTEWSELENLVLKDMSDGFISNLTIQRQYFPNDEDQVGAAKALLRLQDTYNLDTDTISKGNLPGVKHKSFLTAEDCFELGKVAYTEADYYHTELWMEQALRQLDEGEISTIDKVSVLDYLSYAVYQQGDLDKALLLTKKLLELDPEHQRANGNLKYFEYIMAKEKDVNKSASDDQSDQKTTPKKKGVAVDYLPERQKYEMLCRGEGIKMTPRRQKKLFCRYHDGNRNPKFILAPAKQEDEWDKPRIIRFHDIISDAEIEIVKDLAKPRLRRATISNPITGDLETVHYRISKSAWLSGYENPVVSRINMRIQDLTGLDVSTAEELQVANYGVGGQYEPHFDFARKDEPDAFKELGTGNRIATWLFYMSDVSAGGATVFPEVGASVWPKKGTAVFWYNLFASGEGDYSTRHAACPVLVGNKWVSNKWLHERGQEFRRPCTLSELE
T5 sequence (P07237 18-508 partner): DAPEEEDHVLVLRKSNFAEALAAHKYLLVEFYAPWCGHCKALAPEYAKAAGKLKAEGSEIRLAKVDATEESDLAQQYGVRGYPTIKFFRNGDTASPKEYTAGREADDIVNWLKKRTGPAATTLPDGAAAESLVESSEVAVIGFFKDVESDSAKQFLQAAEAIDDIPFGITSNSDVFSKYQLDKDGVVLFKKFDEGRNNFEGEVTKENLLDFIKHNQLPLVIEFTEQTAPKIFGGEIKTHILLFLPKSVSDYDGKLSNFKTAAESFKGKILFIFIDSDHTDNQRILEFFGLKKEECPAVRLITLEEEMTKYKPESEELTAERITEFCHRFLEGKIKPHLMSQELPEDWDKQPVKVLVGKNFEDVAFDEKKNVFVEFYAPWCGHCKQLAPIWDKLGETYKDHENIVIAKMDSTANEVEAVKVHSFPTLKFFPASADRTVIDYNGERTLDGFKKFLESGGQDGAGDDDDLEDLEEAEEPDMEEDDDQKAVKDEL
From the text: as §3, §4, §5, §6, §7, §2, §8

With O=C(O)CNC(=O)C1C(=O)OC2(CCNCC2)OC1=O [compound A, 2-(2,4-dioxo-1,5-dioxa-9-azaspiro[5.5]undecane-3-carboxamido)acetic acid hydrochloride] the remaining binding at 100 µM (EGLN1; HL-60 nuclear lysate) was 24%, the remaining binding at 100 µM (EGLN1; Jurkat nuclear lysate) was 13% and the remaining binding at 100 µM (LEPREL2; Jurkat nuclear lysate) was 9%. The remaining binding at 100 µM (LEPREL2; K-562 nuclear lysate) was 25%, the remaining binding at 100 µM (PLOD3; Jurkat nuclear lysate) was 161% and the remaining binding at 100 µM (PLOD3; K-562 nuclear lysate) was 52%. For the same compound, the remaining binding at 100 µM (C17ORF101) was 67%, the remaining binding at 100 µM (P4HA1; HL-60 nuclear lysate) was 25% and the remaining binding at 100 µM (P4HA1; K-562 nuclear lysate) was 31%.
